# Test results reported in patent US20250222003A1, “PHARMACEUTICAL COMPOSITION FOR TREATING SOLID TUMORS” (Eisai R&D Management Co., Ltd., priority 2021, published 2025).
# Read-outs that look alike come from different tables or passages of the source. Marks after values point to notes of the source that are not given here.
# Tests used:
# [1] = Pharmacokinetics of Compound A, phase I dose-escalation part (plasma); type: in vivo, human; details: for AUC(0-t) / Cmax / Tmax / AUC / half-life: human, plasma, oral; for AUC(0-t): read-out: AUC(0-12 h); for half-life: read-out: Effective t1/2 (converted)
# Procedure: In the treatment phase, Compound A (an oral formulation containing Compound A) is administered to the subjects of administration in one cycle of 28 days. The subjects continued to receive Compound A until disease progression, development of intolerable side effects, the desire for discontinuation of administration and consent withdrawal by the subjects of administration, or trial discontinuation by the clinical trial client. One cycle is 28 days of administration, and such an abbreviation as “C1D28” indicates the number of cycles and the number of days in the cycle, for example, “C1D28” means the 28th day of cycle 1 (the first cycle). The subjects of administration were hospitalized until the time of […] and took a medical consultation and physical examination at the time of C1D15, and if the principal investigator or sub investigator was judged, from the results, that there were no medical problems, the subjects were allowed to leave the hospital. If administration was to be continued after the completion of the medical consultation and physical examination at the time of C2D1, written consent for continuation was obtained before administration at the time of C2D1.
# Tablets containing Compound A are used as Compound A and administered orally repeatedly twice daily (BID). The subjects fasted 2 hours before and 1 hour after administration. The tablets were taken with water and, if possible, at the prescribed time, but if this was not possible, the tablets were taken 8 hours or more after the previous administration.
# In the dose-escalation part, blood was collected from the subjects of administration according to the schedule shown in Table 5, and the pharmacokinetics of Compound A was evaluated. In the expansion part, blood was collected from the subjects of administration before the first administration at C1D1 and CID8, 0.5, 1 and 2 hours after the oral administration of Compound A, and before the first administration at C2D1, and the pharmacokinetics of Compound A was evaluated. The data for C1D1 (the first day of the first cycle) corresponds to the results of a single-dose administration, and the data for C1D8 (the eighth day of the first cycle) corresponds to the results after multiple-dose administration for 8 days at 2 doses per 1 day.
# a Based on 5 patients; b based on 2 patients; c based on 3 patients. tmax is reported as median (range). All other values are reported as geometric mean (% CV). Parameters with two patients are reported for both patients.
# [2] = tested on: patients with a solid tumor; test: Suppression of nausea or vomiting associated with administration of Compound A by antiemetics; type: in vivo, human
# From the text: For subjects of administration that had the gastrointestinal symptoms, nausea or vomiting, the results of administration of various antiemetics were investigated to determine whether they could suppress the occurrence of nausea or vomiting. The antiemetics used were domperidone ([…], Nauzelin tablet), metoclopramide (peripheral D2 receptor antagonist, metoclopramide tablet), ramosetron hydrochloride (5-HT3 receptor antagonist, Nasea tablet), granisetron (5-HT3 receptor antagonist (Kytril tablet), and the like.
# The antiemetics were timely administered to 20 subjects of administration that complained of vomiting during Cycle 1.
# FIGS. 1 and 2 are graphs showing the relationship between Cmax(Cmax,ss) or AUC (AUC(0-tau),ss) and the vomiting flag for each test subject at the time of CID8. For example, the vomiting flag 3 means a case in which treatment with an antiemetic other than the 5-HT3 receptor antagonist was first attempted but vomiting could not be suppressed, and vomiting could be suppressed when the antiemetic was switched to the 5-HT3 receptor antagonist.
# Five additional patients were investigated whether the occurrence of nausea or vomiting, which is an adverse event having a causal relationship with Compound A, could be suppressed. Ramosetron hydrochloride or granisetron hydrochloride (5-HT3 receptor antagonist) was administered to four patients of administration that complained of vomiting during Cycle 1. Of the four patients that complained of vomiting, three patients received granisetron hydrochloride to prevent the gastrointestinal symptoms (nausea, vomiting) associated with administration of Compound A.
# [3] = C1D8, 160 mg BID (n = 2), both patients
# [4] = 160 mg, C1D8, 160 mg BID (n = 2), both patients
compound,measurement,setting,value
"C=CCN1CC(=O)N2[C@@H](Cc3ccc(O)cc3F)C(=O)N(Cc3cccc(N4CC(N5CCN(CC)CC5)C4)n3)C[C@@H]2N1C(=O)NCc1ccccc1 [Compound A, (6S,9aS)—N-benzyl-8-({6-[3-(4-ethylpiperazin-1-yl)azetidin-1-yl]pyridin-2-yl}methyl)-6-(2-fluoro-4-hydroxybenzyl)-4,7-dioxo-2-(prop-2-en-1-yl)hexahydro-2H-pyrazino[2,1-c][1,2,4]triazine-1 (6H)-carboxamide]",relation of exposure to dosage,"[1]; 10-160 mg BID, Tables 6 and 7",exposure amount increased as the dosage of Compound A increased
same,Effective t1/2,"[1]; C1D8, 20 mg BID, based on 2 patients, both patients",18.0 ^b h
same,"C max, ss",[1]; [3],3850 ng/mL
same,Effective t1/2,[1]; [3],25.6 h
same,"t max, ss",[1]; [3],"1.00, 1.00 h"
same,AUC(0-t),"[1]; 10 mg, C1D1, 10 mg BID (n = 3), geometric mean",131 ng·h/mL
same,Cmax,"[1]; 10 mg, C1D1, 10 mg BID (n = 3), geometric mean, read-out: Cmax",37.2 ng/mL
same,Tmax,"[1]; 10 mg, C1D1, 10 mg BID (n = 3), median",2 h
same,AUC,"[1]; 10 mg, C1D8, 10 mg BID (n = 3), geometric mean, read-out: AUC (0-tau), ss",210 ng·h/mL
same,Cmax,"[1]; 10 mg, C1D8, 10 mg BID (n = 3), geometric mean, read-out: C max, ss",53.9 ng/mL
same,Tmax,"[1]; 10 mg, C1D8, 10 mg BID (n = 3), median",2 h
same,AUC(0-t),"[1]; 15 mg, C1D1, 15 mg BID (n = 4), geometric mean",310 ng·h/mL
same,Cmax,"[1]; 15 mg, C1D1, 15 mg BID (n = 4), geometric mean, read-out: Cmax",135 ng/mL
same,Tmax,"[1]; 15 mg, C1D1, 15 mg BID (n = 4), median",0.75 h
same,AUC,"[1]; 15 mg, C1D8, 15 mg BID (n = 4), geometric mean, read-out: AUC (0-tau), ss",504 ng·h/mL
same,Cmax,"[1]; 15 mg, C1D8, 15 mg BID (n = 4), geometric mean, read-out: C max, ss",159 ng/mL
same,half-life,"[1]; 15 mg, C1D8, 15 mg BID (n = 4), geometric mean",7.1 h
same,Tmax,"[1]; 15 mg, C1D8, 15 mg BID (n = 4), median",0.75 h
same,AUC(0-t),"[1]; 20 mg, C1D1, 20 mg BID (n = 3), geometric mean",501 ng·h/mL
same,Cmax,"[1]; 20 mg, C1D1, 20 mg BID (n = 3), geometric mean, read-out: Cmax",146 ng/mL
same,Tmax,"[1]; 20 mg, C1D1, 20 mg BID (n = 3), median",1 h
same,AUC,"[1]; 20 mg, C1D8, 20 mg BID (n = 3), geometric mean, read-out: AUC (0-tau), ss",866 ng·h/mL
same,Cmax,"[1]; 20 mg, C1D8, 20 mg BID (n = 3), geometric mean, read-out: C max, ss",278 ng/mL
same,Tmax,"[1]; 20 mg, C1D8, 20 mg BID (n = 3), median",0.5 h
same,half-life,"[1]; 20 mg, C1D8, 20 mg BID, based on 2 patients, both patients",12.2 h
same,AUC(0-t),"[1]; 30 mg, C1D1, 30 mg BID (n = 3), geometric mean",349 ng·h/mL
same,Cmax,"[1]; 30 mg, C1D1, 30 mg BID (n = 3), geometric mean, read-out: Cmax",105 ng/mL
same,Tmax,"[1]; 30 mg, C1D1, 30 mg BID (n = 3), median",2 h
same,AUC,"[1]; 30 mg, C1D8, 30 mg BID (n = 3), geometric mean, read-out: AUC (0-tau), ss",396 ng·h/mL
same,Cmax,"[1]; 30 mg, C1D8, 30 mg BID (n = 3), geometric mean, read-out: C max, ss",68.3 ng/mL
same,Tmax,"[1]; 30 mg, C1D8, 30 mg BID (n = 3), median",2 h
same,AUC(0-t),"[1]; 45 mg, C1D1, 45 mg BID (n = 4), geometric mean",865 ng·h/mL
same,Cmax,"[1]; 45 mg, C1D1, 45 mg BID (n = 4), geometric mean, read-out: Cmax",209 ng/mL
same,Tmax,"[1]; 45 mg, C1D1, 45 mg BID (n = 4), median",1 h
same,AUC,"[1]; 45 mg, C1D8, 45 mg BID (n = 4), geometric mean, read-out: AUC (0-tau), ss",1070 ng·h/mL
same,Cmax,"[1]; 45 mg, C1D8, 45 mg BID (n = 4), geometric mean, read-out: C max, ss",199 ng/mL
same,half-life,"[1]; 45 mg, C1D8, 45 mg BID (n = 4), geometric mean",6.59 h
same,Tmax,"[1]; 45 mg, C1D8, 45 mg BID (n = 4), median",3 h
same,AUC(0-t),"[1]; 80 mg, C1D1, 80 mg BID (n = 3), geometric mean",758 ng·h/mL
same,Cmax,"[1]; 80 mg, C1D1, 80 mg BID (n = 3), geometric mean, read-out: Cmax",279 ng/mL
same,Tmax,"[1]; 80 mg, C1D1, 80 mg BID (n = 3), median",2 h
same,AUC,"[1]; 80 mg, C1D8, 80 mg BID (n = 3), geometric mean, read-out: AUC (0-tau), ss",2100 ng·h/mL
same,Cmax,"[1]; 80 mg, C1D8, 80 mg BID (n = 3), geometric mean, read-out: C max, ss",737 ng/mL
same,half-life,"[1]; 80 mg, C1D8, 80 mg BID (n = 3), geometric mean",17.4 h
same,Tmax,"[1]; 80 mg, C1D8, 80 mg BID (n = 3), median",1 h
same,AUC(0-t),"[1]; 100 mg, C1D1, 100 mg BID (n = 6), geometric mean",1420 ng·h/mL
same,Cmax,"[1]; 100 mg, C1D1, 100 mg BID (n = 6), geometric mean, read-out: Cmax",443 ng/mL
same,Tmax,"[1]; 100 mg, C1D1, 100 mg BID (n = 6), median",0.5 h
same,Cmax,"[1]; 100 mg, C1D8, 100 mg BID (n = 6), geometric mean, read-out: C max, ss",862 ng/mL
same,half-life,"[1]; 100 mg, C1D8, 100 mg BID (n = 6), geometric mean",13 h
same,Tmax,"[1]; 100 mg, C1D8, 100 mg BID (n = 6), median",1 h
same,AUC,"[1]; 100 mg, C1D8, 100 mg BID, based on 5 patients, geometric mean, read-out: AUC (0-tau), ss",2700 ng·h/mL
same,AUC(0-t),"[1]; 120 mg, C1D1, 120 mg BID (n = 3), geometric mean",1910 ng·h/mL
same,Cmax,"[1]; 120 mg, C1D1, 120 mg BID (n = 3), geometric mean, read-out: Cmax",557 ng/mL
same,Tmax,"[1]; 120 mg, C1D1, 120 mg BID (n = 3), median",2 h
same,AUC(0-t),"[1]; 120 mg, C1D1, 120 mg BID (n = 8, incl. additional cases), geometric mean",1910 ng·h/mL
same,Cmax,"[1]; 120 mg, C1D1, 120 mg BID (n = 8, incl. additional cases), geometric mean, read-out: Cmax",557 ng/mL
same,Tmax,"[1]; 120 mg, C1D1, 120 mg BID (n = 8, incl. additional cases), median",2 h
same,AUC,"[1]; 120 mg, C1D8, 120 mg BID (n = 3), geometric mean, read-out: AUC (0-tau), ss",2460 ng·h/mL
same,Cmax,"[1]; 120 mg, C1D8, 120 mg BID (n = 3), geometric mean, read-out: C max, ss",737 ng/mL
same,half-life,"[1]; 120 mg, C1D8, 120 mg BID (n = 3), geometric mean",5.49 h
same,Tmax,"[1]; 120 mg, C1D8, 120 mg BID (n = 3), median",1 h
same,AUC,"[1]; 120 mg, C1D8, 120 mg BID (n = 8), based on n = 7 subjects, geometric mean, read-out: AUC (0-tau), ss",2460 ng·h/mL
same,Cmax,"[1]; 120 mg, C1D8, 120 mg BID (n = 8), based on n = 7 subjects, geometric mean, read-out: C max, ss",751 ng/mL
same,Tmax,"[1]; 120 mg, C1D8, 120 mg BID (n = 8), based on n = 7 subjects, median",1 h
same,AUC,"[1]; 160 mg BID, C1D8, read-out: lowest value of AUC(0-tau),ss of the subjects in which vomiting could not be suppressed even after the 5-HT3 receptor antagonist",9060 ng·h/mL
same,Tmax,"[1]; 160 mg, C1D1, 160 mg BID (n = 2), both patients",0.5 h
same,Tmax,[1]; [4],1 h
same,Cmax,"[1]; 160 mg, C1D8, 160 mg BID (n = 2), both patients, read-out: C max, ss",2980 ng/mL
same,half-life,[1]; [4],17.5 h
same,AUC,"[1]; C1D8, read-out: highest value of AUC(0-tau),ss of the subjects in which vomiting could be suppressed by the 5-HT3 receptor antagonist",7640 ng·h/mL
same,"Vomiting flag 0, N: neither nausea nor vomiting observed, or antiemetics not required","[2]; Table 10, before additional cases",10
same,"Vomiting flag 0, N: neither nausea nor vomiting observed, or antiemetics not required","[2]; Table 14, entire dose-escalation part incl. additional cases",11
